Laboratory results published in PMC12517105 (Toxicology Reports, 2025).
Read-outs that look alike come from different tables or passages of the source.

Columns and labels:
ALI-HBECs [1] = tested on: ALI-HBECs; set-up: species or system human; conditions: for Fraction of parent metabolites that are M1 / Absorption into cells: optimization dataset
Source text: A dosimetry model was developed to contextualize how PAHs interact with ALI-HBECs during exposure (Fig. 1). The model describes the time course dosimetry of two PAHs: […] Model parameters for cell and media compartments were characterized based on measurements for the ALI-HBEC culture system described by […] Technologies (Table 2). […] [28], [67]. We initially modeled parent and metabolite transport among compartments as passive diffusion using ordinary differential equations. […] Consistent with these previous observations, we observed induction of CYP1A1 activity as measured by P450-GloTM (see Results). […] CYP1A1 activity was included as a coefficient of the rate of metabolism for PAH parent which could be triggered by an induction switch. The switch allows for metabolism induction to be turned on or off in future uses of the model. When turned off, the CYP term is set to 1 and the rate of metabolism behaves as described above. […] Parameters were optimized against the optimization UPLC dataset. Parent absorption and metabolism were optimized together against data for BAP in cells. Parent permeability and volatilization were optimized together against data for BAP in media. […] All model parameters and CYP1A1 rational function coefficients were optimized using a maximum log likelihood objective with the Nelder-Mead algorithm and starting values set by visual inspection. The model was built in R version 4.4.2 (R Foundation for Statistical Computing, Vienna, Austria) using the RMagnolia R package version 1.3.15 (https://www.magnoliasci.com/rmagnolia/). The Akaike Information Criterion (AIC) was used for selecting the best model fit for CYP1A1 activity, inclusion of metabolism induction, and inclusion of active efflux. The final model with metabolism induction and active efflux of the metabolite was validated by comparison to data collected in the validation UPLC dataset.

[2] = Mass balance experiments: BAP and metabolites in cell, media and mucus fractions by UPLC; format: in vitro ADME, human; conditions: human
Method: (§1) Normal HBECs (Lonza, Basel, Switzerland) were expanded to passage 4 in PneumaCult™-Ex Plus medium and transferred to 12-well plates with 12 mm transwell inserts ([…] Technologies, Vancouver, BC, Canada) and 30,000 cells per insert or 24-well plates with 6.5 mm transwell inserts ([…] Technologies, Vancouver, BC, Canada) and 9000 cells per insert for differentiation at the ALI using PneumaCult™-ALI medium. Cells were cultured at the ALI for 25 days at 37°C and 5 % CO2 with media changes every 2–3 days and mucus washes using DPBS on the apical surface once a week starting at 14 days post air-lifting to maintain healthy ALI cultures. Just before exposure, media was changed and ALI-HBECs were apically washed with DPBS or ALI media to remove mucus.
(§2) Glass pipettes were used for all collection and extraction steps to reduce loss of compound from binding to plastic. ALI media was used instead of DPBS for all rinse and collection steps due to interference with the fluorescence detector. At each timepoint, basal media was collected and the bottom of the insert rinsed, the apical surface was washed and rinses collected, and cells were collected by scraping with a stainless-steel spatula and rinsed from the insert. All collected fractions were flash frozen in liquid nitrogen and stored at −80°C.
(§3) For Phase 2 metabolite analysis, samples were incubated with β-glucuronidase to deconjugate glucuronide and […] metabolites following methods described by Combie et al.. For cell fractions, 0.1 mm glass beads were added to the sample and placed in a Next Advance Bullet Blender™ 24 (Troy, NY) for 3 min to fully lyse cells and increase recovery. All cell, media, and mucus samples were transferred to amber glass vials and adjusted to pH 5 with acetic acid. β-glucuronidase reconstituted in water was added to samples at 5000 U/mL, and samples were incubated at 65°C for 3 h. Samples were allowed to cool to room temperature before continuing with extractions.
(§4) All samples were spiked with DBC as an internal standard for a final concentration of 2.5 μM to correct compound recovery for extraction efficiency. Cell fractions not previously incubated with β-glucuronidase were lysed by blending with 0.1 mm glass beads. All cell, media, and mucus samples were transferred to glass vials, vortexed and sonicated in ethyl acetate, and incubated for 2 h at −20°C to precipitate any protein. Samples were centrifuged at 2000 rcf for 10 min, and the ethyl acetate supernatant was collected. This was repeated for a total of three rounds. Ethyl acetate was evaporated to dryness under nitrogen gas, samples were reconstituted in 100 μL ACN, and samples were stored at −80°C.
(§5) Glucuronide metabolite formation was estimated as the difference between samples incubated with and without β-glucuronidase at similar timepoints.

ALI-HBECs [3] = assay: as above; format: in vitro ADME, human
Method: as §1, §2, §3, §4, §5

CYP1A1 [4] = assay: RNA-sequencing, differential expression of CYP1A1; format: cell-based, human; conditions: 24 h, BAP 0.076-3 µg/cm^2, vs vehicle control
Method: (§6) Cells were collected from inserts and lysed with RLT lysis buffer with 1 % β-mercaptoethanol using the RNeasy Mini Kit (Qiagen, Hilden, Germany) and stored at −80 °C. RNA was isolated from cell lysate using the RNeasy Mini Kit per the manufacturer’s protocol and was quantified on a Synergy HTX (BioTek, Winooski, VT, USA) plate reader equipped with a Take3 module (BioTek, Winooski, VT, USA). […] For library construction, mRNA was poly-A selected and libraries were prepared as previously described by Dasgupta et al.. High quality reads with a sequencing length greater than 150 bp were annotated and mapped to the human reference genome GRCh38.p14 using HISAT2, count tables were generated with feature Counts, and differential expression was conducted using the DESeq2 R package version 1.46.0 compared to vehicle control, [64]. In vehicle exposed samples, the fragment per kilobase million (FPKM) was calculated for each gene, and genes with an FPKM > 1 were considered constitutively expressed, [102], [114]. Genes associated with xenobiotic metabolism and transport were identified by pathway enrichment analysis in MetaCore (GeneGo, Thomson Reuters, Carlsbad, CA) and by literature search.

[5] = tested on: genes related to xenobiotic metabolism and transport in ALI-HBECs; assay: RNA-sequencing, differentially expressed xenobiotic transport and metabolism genes; format: cell-based, human; conditions: 24 h, by at least one BAP treatment vs vehicle control
Method: as §6

CYP1A1 [6] = assay: CYP1A1 activity, P450-Glo CYP1A1 Assay in ALI-HBECs; format: cell-based, human; conditions: BAP 2.26 µg/cm^2, 0-48 h
Method: CYP1A1 activity was measured in ALI-HBECs using the P450-Glo™ CYP1A1 Assay System (Promega, Madison, WI). The protocol was adapted to assess CYP1A1 activity in ALI-HBECs. Luciferin-CEE solution was diluted in DPBS, ALI-HBEC basal media was replaced with DPBS, and 50 µL of Luciferin-CEE solution was added to the apical surface. […] Luminescence was recorded on a Synergy HTX plate reader. Cell viability was measured using the CellTiter-Glo® (CTG) Luminescent Cell Viability Assay (Promega, Madison, WI) per manufacturer’s protocol, and luminescence was recorded on a Synergy HTX plate reader. Background luminescence was subtracted from all data, and CYP1A1 activity was normalized to cell viability for each sample.

[7] = M1 parameter, Active Efflux model
[8] = M1 parameter, Active Efflux model, set as parent value
[9] = M1 parameter, Passive Diffusion model
[10] = M1 parameter, Passive Diffusion model, set as parent value
[11] = parent parameter, No Metabolism Induction
[12] = parent parameter, With Metabolism Induction

OC1C=Cc2c(cc3ccc4cccc5ccc2c3c45)C1O (centres unmarked) [7,8-dihydrodiol, BAP-7,8-dihydrodiol]
Active efflux into media (ALI-HBECs [1]; [7]): 0.000869 L/h
Active efflux into mucus (ALI-HBECs [1]; [7]): 0.000445 L/h
Clearance by metabolism (ALI-HBECs [1]; [7]): 0.79 L/hr/kg^3/4
Fraction of parent metabolites that are M1 (ALI-HBECs [1]; [7]): 0.099
Volatilization from media (ALI-HBECs [1]; [8]): 0.00185 h⁻¹
Volatilization from mucus (ALI-HBECs [1]; [8]): 0.00185 h⁻¹
Clearance by metabolism (ALI-HBECs [1]; [9]): 3.93 L/hr/kg^3/4
Permeability of cells (ALI-HBECs [1]; [9]): 0.061 cm/h
Fraction of parent metabolites that are M1 (ALI-HBECs [1]; [9]): 0.022
Volatilization from media (ALI-HBECs [1]; [10]): 0.00185 h⁻¹
Volatilization from mucus (ALI-HBECs [1]; [10]): 0.00185 h⁻¹
Fraction of M1 formed from parent metabolites (ALI-HBECs [1]; model temporarily optimized to the validation set (BAP 4.67 µg/cm^2)): 0.05

c1ccc2c(c1)cc1ccc3cccc4ccc2c1c34 [BAP, Benzo[a]pyrene]
recovery at 0 h, 2.26 µg/cm^2 [2]: 85.2%
recovery at 0 h, 4.67 µg/cm^2 [2]: 87.5%
time by which BAP was cleared from cells (ALI-HBECs [3]; after exposure): ≤ 48 h
time before BAP started releasing into the media fraction (ALI-HBECs [3]; optimization dataset): > 4 h
average BAP recovery at 0 h (amount) (ALI-HBECs [3]; optimization dataset, BAP 2.26 µg/cm^2): 8.6 nmol
average BAP recovery at 0 h (amount) (ALI-HBECs [3]; validation dataset, BAP 4.67 µg/cm^2): 16.8 nmol
Volatilization from media (ALI-HBECs [1]; [11]): 0.00436 h⁻¹
Absorption into cells (ALI-HBECs [1]; [11]): 0.47 h⁻¹
Volatilization from media (ALI-HBECs [1]; [12]): 0.00185 h⁻¹
Absorption into cells (ALI-HBECs [1]; [12]): 0.24 h⁻¹
CYP1A1 average induction (mRNA) (CYP1A1 [4]): 12.6 fold
number of genes related to xenobiotic metabolism significantly differentially expressed [5]: 38 genes
number of genes related to xenobiotic transport significantly differentially expressed [5]: 8 genes
time of maximum CYP1A1 activity (CYP1A1 [6]): 8 h
